ChEMBL document CHEMBL1201862, “PubChem BioAssay data set” (2004)
The source made the active and inactive calls.

Columns and labels:
Bcl-2-like protein 10 = Bcl-2-like protein 10 (Homo sapiens, UniProt Q9HD36); assay: Isothermal titration calorimetry (ITC) with Bcl-B and compounds active in primary screen. [Related pubchem assays (depositor defined):AID1693]; format: functional
INS1 [1] = assay: protection of INS-1E cells from cytokine death, dose response, ATP luminescence, dry powder (AID 488844); format: functional, cell-based; conditions: Rattus norvegicus
INS1 [2] = assay: protection from cytokine-induced mitochondrial depolarization, dose response, cell-based, INS-1E, JC-1 fluorescence ratio, dry powder (AID 488931); format: functional; conditions: Rattus norvegicus
Phospholipase D1 = Phospholipase D1 (Homo sapiens, UniProt Q13393); assay: PLD1 inhibitor potency in cells, dose response (AID 602151); format: functional;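 further: cellular PLD1 assay in Calu-1 cells stimulated with PMA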
Phospholipase D2 = Phospholipase D2 (Homo sapiens, UniProt O14939); assay: PLD2 inhibitor potency in cells, dose response (AID 602147); format: functional;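 further: cellular assay in HEK293 cells overexpressing GFP-tagged PLD2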
[3] = biological target: T1, Endoribonuclease toxin MazF (Escherichia coli K-12, UniProt P0AE70); assay: MazF toxin RNase activators, dose response, biochemical, fluorescence, single-stranded RNA substrate, uHTS hits (AID 588481); format: functional
[4] = biological target: T1, Endoribonuclease toxin MazF; assay: fluorescent RNA oligo signal without MazF, dose response, counter-screen for MazEF activator project, biochemical, fluorescence, single-stranded RNase substrate (AID 588502); format: functional
Trypsin = Trypsin (Sus scrofa, UniProt P00761); assay: porcine trypsin inhibitors, dose response, selectivity assay for Rce1 protease inhibitor project, biochemical, quenched peptide fluorescence, cherry-pick (AID 488789)
CAAX prenyl protease 2 [5] = biological target: T2, CAAX prenyl protease 2 (Saccharomyces cerevisiae S288c, UniProt Q03530); format: biochemical
T2 sequence (Q03530 whole entry): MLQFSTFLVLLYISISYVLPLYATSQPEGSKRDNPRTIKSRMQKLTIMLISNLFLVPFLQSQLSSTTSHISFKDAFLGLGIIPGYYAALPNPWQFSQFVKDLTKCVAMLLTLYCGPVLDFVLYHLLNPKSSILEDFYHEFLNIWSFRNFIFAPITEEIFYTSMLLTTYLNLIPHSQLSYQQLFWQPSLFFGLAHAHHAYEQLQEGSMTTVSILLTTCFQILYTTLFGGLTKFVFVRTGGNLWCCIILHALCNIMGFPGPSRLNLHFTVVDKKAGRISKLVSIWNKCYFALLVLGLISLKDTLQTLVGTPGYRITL

CAAX prenyl protease 2 [6] = biological target: CAAX prenyl protease 2 (Homo sapiens, UniProt Q9Y256); assay: human Rce1 protease inhibitors, dose response, biochemical, yeast membranes, quenched-peptide fluorescence, cherry-pick (AID 588849)
[7] = biological target: Beta-2 adrenergic receptor (Homo sapiens, UniProt P07550); assay: beta2AR agonists driving receptor internalization, dose response, cell-based, FAP fluorogen, flow cytometry, cherry pick 1 (AID 588763); format: functional
[8] = cytotoxicity in MIN6 insulinoma cells, dose response, cytotoxicity control, cell-based, mouse insulinoma (AID 2122); format: functional;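 further: confirmatory high-throughput counterscreen run to flag cytotoxic compounds; mouse MIN-6 beta cells carrying an insulin promoter eGFP reporter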
[9] = insulin promoter down-regulators in MIN6 cells, imaging, high-content screening, mouse beta cells (AID 1628); format: functional
Candida albicans [10] = assay: growth inhibition of resistant C. albicans, dose response, CaCi-8 strain, fluconazole, dry powder, set 4 (AID 488950); format: functional, organism-based
Candida albicans [11] = assay: Candida albicans growth inhibition, agent alone, dose response, counter-screen for reversing antifungal drug resistance, CaCi-2 strain, no fluconazole, dry powder, set 4 (AID 488932); format: functional, organism-based
Candida albicans [12] = assay: fluconazole resistance reversal in C. albicans, dose response, CaCi-2 strain, Alamar Blue, dry powder, set 4 (AID 488943); format: functional, organism-based
[13] = biological target: Acyl-homoserine lactone acylase PvdQ (Pseudomonas aeruginosa (strain LESB58), UniProt Q9I194); assay: P. aeruginosa PvdQ acylase inhibitors, dose response, biochemical, fluorescence, plate reader and imaging, cherry-picks (AID 493231)
[14] = inhibitors of SNCA 5'UTR-driven reporter translation, confirmation, H4 neuroglioma cells, luminescence (AID 1988); format: functional, cell-based
[15] = inhibitors of firefly luciferase expression or activity, dose response, H4 neuroglioma cells, luminescence (AID 1990); format: functional, cell-based
HeLa = assay: HeLa cell cytotoxicity, dose response, cytotoxicity control, 48 h, plate reader, cherry-picks (AID 504942); format: functional, cell-based; conditions: Homo sapiens
[16] = biological target: T3, Short transient receptor potential channel 4 (Mus musculus, UniProt Q9QUQ5); assay: SAR Analysis for the identification of selective inhibits of the transient receptor potential cation channel C4 (TRPC4): Automated Electrophysiology. [Related pubchem assays (depositor defined):AID2256]; format: functional
T3 sequence (Q9QUQ5 whole entry): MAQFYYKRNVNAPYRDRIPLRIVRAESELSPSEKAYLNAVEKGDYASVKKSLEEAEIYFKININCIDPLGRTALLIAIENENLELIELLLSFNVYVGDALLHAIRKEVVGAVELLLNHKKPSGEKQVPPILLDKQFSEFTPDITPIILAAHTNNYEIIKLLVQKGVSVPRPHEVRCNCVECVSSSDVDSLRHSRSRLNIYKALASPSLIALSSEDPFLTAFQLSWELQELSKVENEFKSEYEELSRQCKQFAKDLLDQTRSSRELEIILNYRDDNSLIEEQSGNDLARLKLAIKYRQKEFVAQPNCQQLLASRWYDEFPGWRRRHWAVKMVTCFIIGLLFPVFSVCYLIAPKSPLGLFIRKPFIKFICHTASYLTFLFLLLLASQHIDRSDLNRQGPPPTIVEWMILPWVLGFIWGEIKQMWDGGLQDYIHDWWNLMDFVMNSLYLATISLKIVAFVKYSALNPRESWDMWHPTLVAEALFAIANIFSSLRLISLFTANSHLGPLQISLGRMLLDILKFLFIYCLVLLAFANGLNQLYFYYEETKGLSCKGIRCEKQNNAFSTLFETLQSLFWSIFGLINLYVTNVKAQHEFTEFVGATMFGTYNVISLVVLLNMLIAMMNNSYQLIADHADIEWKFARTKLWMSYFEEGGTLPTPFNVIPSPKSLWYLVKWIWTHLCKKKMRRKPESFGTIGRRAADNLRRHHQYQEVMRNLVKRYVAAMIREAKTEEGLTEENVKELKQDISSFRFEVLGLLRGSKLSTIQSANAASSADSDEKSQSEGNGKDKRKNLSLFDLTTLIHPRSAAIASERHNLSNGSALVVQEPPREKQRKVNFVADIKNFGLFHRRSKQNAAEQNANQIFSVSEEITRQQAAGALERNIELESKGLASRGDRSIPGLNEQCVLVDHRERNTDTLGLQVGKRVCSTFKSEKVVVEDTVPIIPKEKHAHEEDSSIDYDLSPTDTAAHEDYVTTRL

[17] = biological target: T3, Short transient receptor potential channel 4; assay: TRPC4 inhibitor concentration-response, dose response, cell-based, HEK293 TRPC4/mu-opioid, DAMGO stimulus, Fluo-4 (AID 492994); format: functional
[18] = biological target: Short transient receptor potential channel 6 (Mus musculus, UniProt Q61143); assay: TRPC6 inhibition potency of TRPC4 inhibitor analogs, dose response, selectivity assay for selective TRPC4 inhibitor project, HEK293 cells, membrane potential dye, IC50 (AID 492987); format: functional, cell-based
Hexokinase HKDC1 = biological target: T4, Hexokinase HKDC1 (Homo sapiens, UniProt Q2TB90); assay: HKDC1 hexokinase inhibitors, SAR follow-up, biochemical, set 2 (AID 588355); format: functional
T4 sequence (Q2TB90 whole entry): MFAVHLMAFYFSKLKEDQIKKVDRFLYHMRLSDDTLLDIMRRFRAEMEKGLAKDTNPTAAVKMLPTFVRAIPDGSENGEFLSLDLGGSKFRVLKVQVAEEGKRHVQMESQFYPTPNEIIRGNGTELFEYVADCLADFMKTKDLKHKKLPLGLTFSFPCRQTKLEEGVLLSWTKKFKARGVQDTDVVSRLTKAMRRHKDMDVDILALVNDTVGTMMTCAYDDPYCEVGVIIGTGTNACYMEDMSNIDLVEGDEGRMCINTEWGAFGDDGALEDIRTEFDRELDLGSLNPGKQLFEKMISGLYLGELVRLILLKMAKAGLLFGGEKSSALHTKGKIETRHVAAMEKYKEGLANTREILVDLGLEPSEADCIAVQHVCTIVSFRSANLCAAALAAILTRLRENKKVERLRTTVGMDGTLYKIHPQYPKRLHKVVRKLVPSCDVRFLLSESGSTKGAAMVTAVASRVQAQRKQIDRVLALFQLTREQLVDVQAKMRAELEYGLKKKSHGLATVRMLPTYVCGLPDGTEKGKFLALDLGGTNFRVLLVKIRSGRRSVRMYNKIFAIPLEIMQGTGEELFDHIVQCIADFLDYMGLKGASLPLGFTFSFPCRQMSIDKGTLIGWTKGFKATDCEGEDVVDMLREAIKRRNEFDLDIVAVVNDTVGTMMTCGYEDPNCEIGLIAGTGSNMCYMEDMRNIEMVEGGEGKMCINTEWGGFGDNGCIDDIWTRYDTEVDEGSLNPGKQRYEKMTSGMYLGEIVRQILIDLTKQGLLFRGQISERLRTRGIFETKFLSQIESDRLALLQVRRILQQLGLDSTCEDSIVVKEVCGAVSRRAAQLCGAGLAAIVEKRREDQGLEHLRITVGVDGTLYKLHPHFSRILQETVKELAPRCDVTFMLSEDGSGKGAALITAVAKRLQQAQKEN

Hexokinase-1 = Hexokinase-1 (Homo sapiens, UniProt P19367); assay: HK1 enzyme inhibition by HKDC1 hits, SAR follow-up, selectivity assay for HKDC1 inhibitor project, biochemical, set 2, resazurin fluorescence coupled readout (AID 588356); format: functional
DNA topoisomerase = DNA topoisomerase (Yersinia pestis, UniProt A0A2S9PM60); assay: Y. pestis Topo-I inhibitors, cleavage product readout, dose response, biochemical, cherry-pick (AID 588525)
INS1 [19] = assay: beta cell apoptosis inhibitors, cytokine rescue, dose response, luminescence, retest (AID 449756); format: functional, cell-based; conditions: Rattus norvegicus;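 further: cell death triggered by IL-1 beta plus TNF-alpha plus IFN-gamma mixture; protective hits raise ATP signal compared with cytokine alone wells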

T1 sequence (P0AE70 whole entry): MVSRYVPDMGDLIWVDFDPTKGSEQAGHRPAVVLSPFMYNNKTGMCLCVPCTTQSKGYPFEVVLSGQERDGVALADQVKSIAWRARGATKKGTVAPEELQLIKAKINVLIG
Bcl-2-like protein 10, sequence (Q9HD36 whole entry): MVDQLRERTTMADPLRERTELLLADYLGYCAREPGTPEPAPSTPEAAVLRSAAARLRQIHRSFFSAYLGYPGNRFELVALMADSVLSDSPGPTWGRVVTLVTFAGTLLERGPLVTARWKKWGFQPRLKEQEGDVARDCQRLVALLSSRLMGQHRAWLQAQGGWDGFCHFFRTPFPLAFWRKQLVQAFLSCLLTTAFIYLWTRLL
Phospholipase D2, sequence (O14939 whole entry): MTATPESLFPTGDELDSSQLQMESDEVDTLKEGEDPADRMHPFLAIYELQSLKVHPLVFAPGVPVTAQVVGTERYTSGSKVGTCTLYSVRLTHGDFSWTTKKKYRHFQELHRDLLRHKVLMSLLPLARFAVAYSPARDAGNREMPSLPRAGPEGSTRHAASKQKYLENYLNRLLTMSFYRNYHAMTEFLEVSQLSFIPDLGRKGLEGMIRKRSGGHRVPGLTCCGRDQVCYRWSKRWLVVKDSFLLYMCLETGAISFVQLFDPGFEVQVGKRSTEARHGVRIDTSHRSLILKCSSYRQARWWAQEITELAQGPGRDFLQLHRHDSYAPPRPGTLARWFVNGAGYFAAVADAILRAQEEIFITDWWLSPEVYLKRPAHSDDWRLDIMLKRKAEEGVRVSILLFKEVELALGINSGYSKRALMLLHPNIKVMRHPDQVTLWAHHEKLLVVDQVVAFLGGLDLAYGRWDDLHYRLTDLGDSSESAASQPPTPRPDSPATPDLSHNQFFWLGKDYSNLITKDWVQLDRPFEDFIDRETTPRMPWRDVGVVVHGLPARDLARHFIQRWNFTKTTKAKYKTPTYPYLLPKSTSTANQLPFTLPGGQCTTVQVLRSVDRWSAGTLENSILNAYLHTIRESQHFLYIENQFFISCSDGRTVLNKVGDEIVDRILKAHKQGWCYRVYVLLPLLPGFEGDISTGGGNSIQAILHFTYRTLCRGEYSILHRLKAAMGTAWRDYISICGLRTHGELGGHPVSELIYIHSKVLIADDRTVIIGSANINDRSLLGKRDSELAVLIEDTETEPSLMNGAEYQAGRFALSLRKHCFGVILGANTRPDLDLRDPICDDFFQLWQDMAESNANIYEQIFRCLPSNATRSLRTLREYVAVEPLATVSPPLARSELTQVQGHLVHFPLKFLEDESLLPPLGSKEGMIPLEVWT
Acyl-homoserine lactone acylase PvdQ, sequence (Q9I194 24-193 limits assumed): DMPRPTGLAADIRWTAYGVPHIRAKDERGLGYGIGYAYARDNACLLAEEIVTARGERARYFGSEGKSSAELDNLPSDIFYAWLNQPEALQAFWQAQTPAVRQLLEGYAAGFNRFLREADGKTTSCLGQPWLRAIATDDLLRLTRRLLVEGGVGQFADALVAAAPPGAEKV
Acyl-homoserine lactone acylase PvdQ, sequence (Q9I194 217-762 limits assumed): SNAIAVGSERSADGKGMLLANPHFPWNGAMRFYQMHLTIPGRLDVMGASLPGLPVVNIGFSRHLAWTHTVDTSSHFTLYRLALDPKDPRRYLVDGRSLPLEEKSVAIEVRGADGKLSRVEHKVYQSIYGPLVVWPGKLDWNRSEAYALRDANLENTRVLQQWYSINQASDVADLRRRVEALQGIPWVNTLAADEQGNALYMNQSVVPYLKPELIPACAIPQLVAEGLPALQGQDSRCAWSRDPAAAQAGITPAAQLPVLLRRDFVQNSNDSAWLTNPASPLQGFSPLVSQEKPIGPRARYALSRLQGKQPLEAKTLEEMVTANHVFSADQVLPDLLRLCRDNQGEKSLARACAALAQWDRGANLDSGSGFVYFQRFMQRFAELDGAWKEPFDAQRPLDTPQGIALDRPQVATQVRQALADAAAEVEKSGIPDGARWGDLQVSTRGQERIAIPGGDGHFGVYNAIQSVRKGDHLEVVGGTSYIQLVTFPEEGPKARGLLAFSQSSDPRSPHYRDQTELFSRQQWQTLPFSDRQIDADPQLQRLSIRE
CAAX prenyl protease 2 (Homo sapiens, UniProt Q9Y256), sequence (Q9Y256 whole entry): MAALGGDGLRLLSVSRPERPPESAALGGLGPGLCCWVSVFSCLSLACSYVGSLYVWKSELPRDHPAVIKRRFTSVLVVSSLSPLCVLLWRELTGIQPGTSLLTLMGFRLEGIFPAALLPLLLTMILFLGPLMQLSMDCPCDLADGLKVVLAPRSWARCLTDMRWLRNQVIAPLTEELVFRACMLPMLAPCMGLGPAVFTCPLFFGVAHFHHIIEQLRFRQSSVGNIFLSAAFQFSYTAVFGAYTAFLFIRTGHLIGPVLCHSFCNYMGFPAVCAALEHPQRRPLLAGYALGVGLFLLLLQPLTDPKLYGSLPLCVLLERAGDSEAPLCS
Phospholipase D1, sequence (Q13393 whole entry): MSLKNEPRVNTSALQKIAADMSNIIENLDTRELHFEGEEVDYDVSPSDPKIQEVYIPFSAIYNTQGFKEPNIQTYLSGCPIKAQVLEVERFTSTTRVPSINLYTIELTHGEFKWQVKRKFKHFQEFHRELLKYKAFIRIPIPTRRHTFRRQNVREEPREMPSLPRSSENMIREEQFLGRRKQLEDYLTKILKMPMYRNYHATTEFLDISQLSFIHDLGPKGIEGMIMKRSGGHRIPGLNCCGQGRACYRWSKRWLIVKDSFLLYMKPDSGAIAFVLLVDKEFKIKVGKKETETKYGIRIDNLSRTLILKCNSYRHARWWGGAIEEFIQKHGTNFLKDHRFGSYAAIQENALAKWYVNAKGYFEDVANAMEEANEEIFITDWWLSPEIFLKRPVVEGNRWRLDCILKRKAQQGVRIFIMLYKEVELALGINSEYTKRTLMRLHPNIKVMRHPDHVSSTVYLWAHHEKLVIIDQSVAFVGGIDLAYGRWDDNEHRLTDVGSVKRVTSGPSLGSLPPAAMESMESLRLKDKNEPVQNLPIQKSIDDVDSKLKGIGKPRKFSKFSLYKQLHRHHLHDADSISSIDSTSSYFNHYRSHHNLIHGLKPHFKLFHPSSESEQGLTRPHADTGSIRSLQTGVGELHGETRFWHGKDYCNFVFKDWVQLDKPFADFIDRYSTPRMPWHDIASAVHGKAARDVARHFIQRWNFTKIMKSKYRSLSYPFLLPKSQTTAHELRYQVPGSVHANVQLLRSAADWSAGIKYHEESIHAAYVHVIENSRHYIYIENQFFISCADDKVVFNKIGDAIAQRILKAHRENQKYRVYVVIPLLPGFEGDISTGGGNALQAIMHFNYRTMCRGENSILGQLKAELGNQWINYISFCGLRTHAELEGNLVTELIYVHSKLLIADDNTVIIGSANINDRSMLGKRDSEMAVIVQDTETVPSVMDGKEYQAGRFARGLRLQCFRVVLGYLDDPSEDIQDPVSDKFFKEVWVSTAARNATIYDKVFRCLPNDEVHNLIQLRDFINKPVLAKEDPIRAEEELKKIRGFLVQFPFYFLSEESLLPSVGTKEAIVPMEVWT
Short transient receptor potential channel 6, sequence (Q61143 whole entry): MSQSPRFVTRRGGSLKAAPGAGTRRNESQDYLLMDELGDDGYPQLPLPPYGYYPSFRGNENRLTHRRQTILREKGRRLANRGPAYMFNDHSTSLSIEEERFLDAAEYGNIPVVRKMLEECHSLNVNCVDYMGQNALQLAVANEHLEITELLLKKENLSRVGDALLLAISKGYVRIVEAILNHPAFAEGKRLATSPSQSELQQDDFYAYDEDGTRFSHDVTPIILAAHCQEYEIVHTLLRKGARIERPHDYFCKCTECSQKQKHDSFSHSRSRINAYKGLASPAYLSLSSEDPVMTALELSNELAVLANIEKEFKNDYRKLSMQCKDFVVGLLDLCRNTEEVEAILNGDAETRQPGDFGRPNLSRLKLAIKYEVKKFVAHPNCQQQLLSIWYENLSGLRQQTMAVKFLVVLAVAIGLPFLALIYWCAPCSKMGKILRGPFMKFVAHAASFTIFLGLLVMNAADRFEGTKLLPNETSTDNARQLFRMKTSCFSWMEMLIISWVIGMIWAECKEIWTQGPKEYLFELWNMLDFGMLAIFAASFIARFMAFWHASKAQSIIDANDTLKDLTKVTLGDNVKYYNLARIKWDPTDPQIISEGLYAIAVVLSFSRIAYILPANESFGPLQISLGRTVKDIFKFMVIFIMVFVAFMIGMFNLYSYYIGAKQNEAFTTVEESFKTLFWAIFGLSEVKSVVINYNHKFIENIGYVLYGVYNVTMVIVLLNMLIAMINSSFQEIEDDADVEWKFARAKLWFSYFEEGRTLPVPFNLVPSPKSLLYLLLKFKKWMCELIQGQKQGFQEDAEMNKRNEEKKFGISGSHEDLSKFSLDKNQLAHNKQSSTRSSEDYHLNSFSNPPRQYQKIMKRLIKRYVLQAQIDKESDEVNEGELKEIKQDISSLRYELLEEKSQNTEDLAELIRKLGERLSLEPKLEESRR
Trypsin, sequence (P00761 whole entry): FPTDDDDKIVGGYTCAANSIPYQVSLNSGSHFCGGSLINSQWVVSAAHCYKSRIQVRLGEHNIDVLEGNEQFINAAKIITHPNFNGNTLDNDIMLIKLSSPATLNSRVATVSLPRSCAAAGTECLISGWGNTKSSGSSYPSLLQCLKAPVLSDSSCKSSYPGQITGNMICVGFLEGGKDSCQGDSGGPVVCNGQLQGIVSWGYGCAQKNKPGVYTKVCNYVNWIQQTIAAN
Beta-2 adrenergic receptor, sequence (P07550 whole entry): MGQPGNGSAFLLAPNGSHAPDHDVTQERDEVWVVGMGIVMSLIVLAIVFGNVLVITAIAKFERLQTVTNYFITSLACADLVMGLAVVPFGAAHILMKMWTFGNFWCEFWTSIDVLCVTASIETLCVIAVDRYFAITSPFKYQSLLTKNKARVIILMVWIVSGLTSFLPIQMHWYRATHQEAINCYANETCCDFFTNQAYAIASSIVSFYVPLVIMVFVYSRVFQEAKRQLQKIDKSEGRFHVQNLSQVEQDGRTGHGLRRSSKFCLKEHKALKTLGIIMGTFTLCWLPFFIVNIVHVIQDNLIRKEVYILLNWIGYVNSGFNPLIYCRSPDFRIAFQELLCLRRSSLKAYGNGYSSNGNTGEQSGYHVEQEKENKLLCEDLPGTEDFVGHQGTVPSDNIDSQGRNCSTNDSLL

With O=C1NC(=O)C2(Cc3c(nc4ccccn4c3=O)N3CCCCCC32)C(=O)N1Cc1ccccc1 (configuration not stated) the IC50 (Bcl-2-like protein 10) was 2.51 µM (active).
For Cc1ccc(S(=O)(=O)N(C)C[C@@H]2Oc3c(NC(=O)Nc4ccccc4)cccc3C(=O)N([C@H](C)CO)C[C@H]2C)cc1, the AC50 (INS1 [1]) was 22.6 µM (active) and the AC50 (INS1 [2]) was 141 µM (active).
With O=C(NCCN1CCC2(CC1)C(=O)NCN2c1ccc(F)c(F)c1)c1ccc(Cl)cc1 the IC50 (Phospholipase D1) was 2.36 µM (active) and the IC50 (Phospholipase D2) was 0.37 µM (active).
With Cc1ccc(O)c(C2=Nc3ccccc3N=C(c3ccco3)C2)c1 the EC50 [3] was > 99 µM (inactive) and the EC50 [4] was 75.1 µM (inactive).
With CC1=C(C)C(C)=C(C#N)C(=C(C#N)C#N)N1 the AC50 (Trypsin) was 12.1 µM (active), the AC50 (CAAX prenyl protease 2 [5]) was 13.2 µM (active) and the AC50 (CAAX prenyl protease 2 [6]) was 13.9 µM (active).
For CC1(C)Cc2c(c(-c3ccco3)nc3sc4c(NCCO)ncnc4c23)CO1, the EC50 [7] was 0.0133 µM (active), the IC50 [8] was > 16 µM (inactive) and the IC50 [9] was 0.909 µM (active).
For O=C(c1ccc(Cl)cc1)N1CCN(c2cnccn2)CC1, the AC50 (Candida albicans [10]) was 10.7 µM (active), the AC50 (Candida albicans [11]) was 234 µM (active) and the AC50 (Candida albicans [12]) was 12.7 µM (active).
With COc1ccc(C2=C(C=O)Cc3ccccc3O2)cc1 the AC50 [13] was 4.37 µM (active), the EC50 [14] was > 120 µM (not active) and the EC50 [15] was > 120 µM (not active). The AC50 (HeLa) was > 380 µM (inactive).
With Cc1cc(N2CCCCC2)nc2ccc(F)cc12 the IC50 [16] was 6.18 µM (active), the IC50 [17] was 10.5 µM (active) and the IC50 [18] was 20.1 µM (active).
In the case of O=c1c2c(F)cccc2nc(/C=C/c2cccnc2)n1Cc1ccccc1, the IC50 (Hexokinase HKDC1) is reported as > 80 µM (inactive) and the IC50 (Hexokinase-1) is reported as > 80 µM (inactive).
With CC(C)(C)OC(=O)NCc1ccc(NC(=O)c2[nH]cnc2C(=O)NCCNC(=O)c2nc[nH]c2C(=O)Nc2ccc(CNC(=O)OC(C)(C)C)cc2)cc1 the AC50 (DNA topoisomerase) was 2.49 µM (active) and the AC50 (INS1 [19]) was 6.59 µM (active).
